Each structure is given as a SMILES string. Read-outs that look alike come from different tables or passages of the source.

Common to all, as to type: biochemical
One assay has as its target T1, FGFR3 (Homo sapiens, UniProt P22607).
T1 construct: FGFR3's cytoplasmic domain [436-806 (terminal) amino acids]; purchased Carna 08-135
In words: FGFR3 kinase activity inhibition assay (LanthaScreen TR-FRET). To be noted: for Selectivity (X) FGFR1/FGFR3: ratio of IC50 FGFR1/FGFR3, selectivity towards FGFR3; for Selectivity (X) FGFR2/FGFR3: ratio of IC50 FGFR2/FGFR3, selectivity towards FGFR3; for Selectivity (X) FGFR4/FGFR3: ratio of IC50 FGFR4/FGFR3, selectivity towards FGFR3. In outline: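 Read-out is TR-FRET, with the 520 nm/495 nm emission ratio normalised to DMSO (max) and enzyme-free (min) controls. Enzyme was the FGFR3 cytoplasmic domain, residues 436-806. EDTA (10 mM) stopped the reaction, followed by 60 min at 22 °C before reading.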
On the technique in general: Time-resolved FRET reads energy transfer from a long-lived donor to a nearby acceptor.

The next assay addresses T2, FGFR1 (Homo sapiens, UniProt P11362).
T2 construct: cytoplasmic domain [398-822 (terminal) amino acids]; purchased Carna 08-133
In words: FGFR1 kinase activity inhibition assay (LanthaScreen TR-FRET). In short, it runs like this:
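Emission ratio 520 nm/495 nm by TR-FRET after stopping reaction with 10 mM EDTA and 60 min incubation at 22°C. Inhibition normalized between no-enzyme (min) and DMSO (max) controls, then fitted to a four-parameter curve (Top, Bottom, HillSlope).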

For a further assay, the target named is T3, FGFR4 (Homo sapiens, UniProt P22455).
T3 construct: FGFR4's cytoplasmic domain [460-802 (terminal) amino acids]; purchased Carna 08-136
In words: FGFR4 kinase activity inhibition assay (LanthaScreen TR-FRET). In short, it runs like this: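 GST-tagged cytoplasmic domains (FGFR2 aa 399-821; FGFR4 aa 460-802) were preincubated 10 min at 23 °C with compound (top 1 µM, threefold dilutions). Then 28 nM fluorescein-poly GT and 28 µM ATP were added for 30 min at 23 °C in HEPES pH 7.5 buffer. Tb-PY20 TR-FRET 520/495 ratio gave % inhibition versus DMSO and no-enzyme controls.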

In a further assay the target is T4, FGFR2 (Homo sapiens, UniProt P21802).
T4 construct: FGFR2's cytoplasmic domain [399-821 (terminal) amino acids]; purchased Carna 08-134
In words: FGFR2 kinase activity inhibition assay (LanthaScreen TR-FRET). In outline:
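GST-fused FGFR2 cytoplasmic domain (aa 399-821) was run as in the FGFR1 protocol: preincubated 10 min at 23 °C with compound (3-fold series from 1 µM) in 50 mM HEPES pH 7.5, 10 mM MgCl2, 4 mM DTT, 1% DMSO. A 2× mix of 28 nM fluorescein-poly GT/28 µM ATP then reacted 30 min. Tb-PY20/EDTA quench preceded the TR-FRET 520/495 read.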

Setting [1] is: FGFR3 kinase, TR-FRET, read-out: IC50 (nM) FGFR3.
Setting [2] is: FGFR1 kinase, TR-FRET, read-out: IC50 (nM) FGFR1.
Setting [3] is: FGFR4 kinase, TR-FRET, read-out: IC50 (nM) FGFR4.
Where [4] appears, read: FGFR2 kinase, TR-FRET, read-out: IC50 (nM) FGFR2.

T2 sequence (P11362 398-822): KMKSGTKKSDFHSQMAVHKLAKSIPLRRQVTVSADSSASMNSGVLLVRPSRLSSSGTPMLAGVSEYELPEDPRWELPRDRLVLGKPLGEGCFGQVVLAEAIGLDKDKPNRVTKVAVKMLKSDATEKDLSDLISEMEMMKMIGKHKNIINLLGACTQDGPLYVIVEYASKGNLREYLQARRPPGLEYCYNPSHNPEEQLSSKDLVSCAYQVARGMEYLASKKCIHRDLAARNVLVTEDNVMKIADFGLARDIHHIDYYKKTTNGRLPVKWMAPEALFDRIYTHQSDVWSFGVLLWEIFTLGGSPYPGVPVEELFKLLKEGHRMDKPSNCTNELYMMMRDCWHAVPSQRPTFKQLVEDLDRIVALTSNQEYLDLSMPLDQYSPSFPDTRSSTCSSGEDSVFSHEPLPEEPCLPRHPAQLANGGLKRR
T3 sequence (P22455 460-802): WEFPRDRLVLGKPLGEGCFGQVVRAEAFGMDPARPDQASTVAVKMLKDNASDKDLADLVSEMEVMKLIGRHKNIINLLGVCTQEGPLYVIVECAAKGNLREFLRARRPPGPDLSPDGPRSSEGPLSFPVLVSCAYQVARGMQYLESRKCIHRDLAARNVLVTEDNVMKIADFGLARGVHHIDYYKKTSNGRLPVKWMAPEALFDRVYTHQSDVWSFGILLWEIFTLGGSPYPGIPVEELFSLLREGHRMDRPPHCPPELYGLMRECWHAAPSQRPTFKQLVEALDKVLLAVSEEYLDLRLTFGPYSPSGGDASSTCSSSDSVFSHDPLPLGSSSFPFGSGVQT
T4 sequence (P21802 399-821): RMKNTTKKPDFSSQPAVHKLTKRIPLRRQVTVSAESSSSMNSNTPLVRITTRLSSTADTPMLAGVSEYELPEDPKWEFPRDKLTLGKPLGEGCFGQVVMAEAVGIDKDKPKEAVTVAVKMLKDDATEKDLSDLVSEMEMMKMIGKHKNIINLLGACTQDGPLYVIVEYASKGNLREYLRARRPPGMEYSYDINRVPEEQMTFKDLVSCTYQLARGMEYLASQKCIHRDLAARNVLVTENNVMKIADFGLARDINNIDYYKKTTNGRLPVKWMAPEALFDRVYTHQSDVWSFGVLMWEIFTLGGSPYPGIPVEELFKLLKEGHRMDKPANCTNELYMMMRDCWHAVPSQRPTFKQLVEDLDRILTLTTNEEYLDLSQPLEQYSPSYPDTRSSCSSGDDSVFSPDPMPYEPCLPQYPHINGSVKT
T1 sequence (P22607 436-806): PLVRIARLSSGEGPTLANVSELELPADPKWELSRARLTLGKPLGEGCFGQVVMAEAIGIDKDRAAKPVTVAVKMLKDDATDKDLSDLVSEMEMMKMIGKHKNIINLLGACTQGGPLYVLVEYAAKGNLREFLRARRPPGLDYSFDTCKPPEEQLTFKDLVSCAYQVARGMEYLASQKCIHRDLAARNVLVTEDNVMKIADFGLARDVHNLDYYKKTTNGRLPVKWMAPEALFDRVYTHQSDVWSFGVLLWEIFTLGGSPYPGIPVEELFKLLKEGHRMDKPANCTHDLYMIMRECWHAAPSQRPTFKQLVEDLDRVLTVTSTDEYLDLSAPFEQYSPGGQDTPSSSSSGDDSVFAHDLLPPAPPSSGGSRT

In the case of `CNCCNC(=O)c1ccc2[nH]nc(-c3cn(C)nn3)c2c1` [Example 74, 3-(1-methyl-1H-1,2,3-triazol-4-yl)-N-(2-(methylamino)ethyl)-1H-indazole-5-carboxamide], the half-inhibitory concentration (IC50) – broadly, the concentration that gives 50% inhibition – on FGFR3 (setting [1]) is 10 to 100 nM; at FGFR1 (setting [2]) it was above 100 nM; on FGFR4 (setting [3]), above 100 nM; on FGFR2 (setting [4]) it was above 100 nM. Also, the “Selectivity (X) FGFR1/FGFR3” value at FGFR3 is “C (C represents 50 ≤ multiple X<100)”. At FGFR3, the “Selectivity (X) FGFR2/FGFR3” value was “B (B represents 20 ≤ multiple X<50)”. In addition, at FGFR3, the “Selectivity (X) FGFR4/FGFR3” value is recorded as “D (D represents 100 ≤ multiple X)”.

On to `Cc1c[nH]c(-c2n[nH]c3ccc(C(=O)NCCN(C)C)cc23)n1` [Example 80, N-(2-(dimethylamino)ethyl)-3-(4-methyl-1H-imidazol-2-yl)-1H-indazole-5-carboxamide], for which the IC50 at FGFR3 (setting [1]) is 10 to 100 nM; on FGFR1 (setting [2]) it was above 100 nM; on FGFR4 (setting [3]) it was above 100 nM; on FGFR2 (setting [4]), above 100 nM. Moreover, the “Selectivity (X) FGFR1/FGFR3” value at FGFR3 is “D (D represents 100 ≤ multiple X)”. Moreover, on FGFR3, the “Selectivity (X) FGFR2/FGFR3” value is “D (D represents 100 ≤ multiple X)”. Also, at FGFR3, the “Selectivity (X) FGFR4/FGFR3” value was “D (D represents 100 ≤ multiple X)”.

On to `CC(Oc1ccc2[nH]nc(-c3cnn(C)c3)c2c1)c1cccc2ncc(Cl)cc12` (stereo not drawn) [Example 94, 3-chloro-5-(1-((3-(1-methyl-1H-pyrazol-4-yl)-1H-indazol-5-yl)oxy)ethyl)quin oline], for which the IC50 at FGFR3 is 10 to 100 nM; against FGFR1, above 100 nM; at FGFR4, above 100 nM; at FGFR2, 10 to 100 nM. For the same molecule, the “Selectivity (X) FGFR1/FGFR3” value on FGFR3 was “C (C represents 50 ≤ multiple X<100)”. Besides, on FGFR3, the “Selectivity (X) FGFR2/FGFR3” value is “A (A represents 1 ≤ multiple X<20)”. Also, the “Selectivity (X) FGFR4/FGFR3” value on FGFR3 is given as “B (B represents 20 ≤ multiple X<50)”.

On to `CC(C)c1ccc2ncccc2c1C(C)Oc1ccc2[nH]nc(-c3cnn(C)c3)c2c1` (stereo not drawn) [Example 107, 6-isopropyl-5-(1-((3-(1-methyl-1H-pyrazol-4-yl)-1H-indazol-5-yl)oxy)ethyl)qu inoline], for which the IC50 on FGFR3 (setting [1]) is 1 to 10 nM; at FGFR1 (setting [2]) it was above 100 nM; on FGFR4 (setting [3]) it was above 100 nM; on FGFR2 (setting [4]), 10 to 100 nM. Further, the “Selectivity (X) FGFR1/FGFR3” value on FGFR3 is recorded as “B (B represents 20 ≤ multiple X<50)”. Also, the “Selectivity (X) FGFR2/FGFR3” value at FGFR3 was “A (A represents 1 ≤ multiple X<20)”. Further, the “Selectivity (X) FGFR4/FGFR3” value on FGFR3 is “B (B represents 20 ≤ multiple X<50)”.

For `CC(Oc1ccc2[nH]nc(-c3cnn(C)c3)c2c1)c1c(C2CC2)ccc2ncccc12` (stereo not drawn) [Example 116, 6-cyclopropyl-5-(1-((3-(1-methyl-1H-pyrazol-4-yl)-1H-indazol-5-yl)oxy)ethyl)qui noline], the concentration for half-maximal inhibition (IC50) at FGFR3 (setting [1]) was 1 to 10 nM; on FGFR1 (setting [2]), 10 to 100 nM; on FGFR4 (setting [3]), above 100 nM; on FGFR2 (setting [4]), 10 to 100 nM. The “Selectivity (X) FGFR1/FGFR3” value on FGFR3 was “B (B represents 20 ≤ multiple X<50)”. In addition, on FGFR3, the “Selectivity (X) FGFR2/FGFR3” value is given as “A (A represents 1 ≤ multiple X<20)”. In addition, the “Selectivity (X) FGFR4/FGFR3” value on FGFR3 is “B (B represents 20 ≤ multiple X<50)”.

For the molecule `CC(Oc1ccc2[nH]nc(-c3cnn(C)c3)c2c1)c1cccc2nnccc12` (stereo not drawn) [Example 119, 5-(1-((3-(1-methyl-1H-pyrazol-4-yl)-1H-indazol-5-yl)oxy)ethyl)cinnoline], the IC50 at FGFR3 (setting [1]) lay within 1 to 10 nM; on FGFR1 (setting [2]) it was 10 to 100 nM; on FGFR4 (setting [3]), 10 to 100 nM; at FGFR2 (setting [4]), 1 to 10 nM. The “Selectivity (X) FGFR1/FGFR3” value at FGFR3 is given as “B (B represents 20 ≤ multiple X<50)”. On FGFR3, the “Selectivity (X) FGFR2/FGFR3” value was “A (A represents 1 ≤ multiple X<20)”. Moreover, the “Selectivity (X) FGFR4/FGFR3” value on FGFR3 is on record as “B (B represents 20 ≤ multiple X<50)”.
